# Source: US8759361B2, “2-phenoxy pyrimidinone analogues” (Neurogen Corporation, priority 2006, dated 2014)
# Biological target: T1, human capsaicin receptor (Homo sapiens, UniProt Q8NER1)
# T1 construct: expressed in transfected cells
# Assay: Calcium mobilization assay, determination of antagonist activity (Example 6)
# Format: cell-based
# Conditions: cells expressing human capsaicin receptor, capsaicin-induced fluorescence response; read-out: IC50
# Method: A cDNA encoding full length human capsaicin receptor (SEQ ID NO:1, 2 or 3 of U.S. Pat. No. 6,482,611) is subcloned in the plasmid pBK-CMV (Stratagene, La Jolla, Calif.) for recombinant expression in mammalian cells.
# Human embryonic kidney (HEK293) cells are transfected with the pBK-CMV expression construct encoding the full length human capsaicin receptor using standard methods. The transfected cells are selected for two weeks in media containing G418 (400 μg/ml) to obtain a pool of stably transfected cells. Independent clones are isolated from this pool by limiting dilution to obtain clonal stable cell lines for use in subsequent experiments.
# Cells transfected with expression plasmids (as described in Example 4) and thereby expressing human capsaicin receptor are seeded and grown to 70-90% confluency in FALCON black-walled, clear-bottomed 96-well plates (#3904, BECTON-DICKINSON, Franklin Lakes, N.J.). The culture medium is emptied from the 96 well plates and FLUO-3 AM calcium sensitive dye (Molecular Probes, Eugene, Oreg.) is added to each well (dye solution: 1 mg FLUO-3 AM, 440 μL DMSO and 440 μl 20% pluronic acid in DMSO, diluted 1:250 in Krebs-Ringer HEPES (KRH) buffer (25 mM HEPES, 5 mM KCl, 0.96 mM NaH2PO4, 1 mM MgSO4, 2 mM CaCl2, 5 mM glucose, 1 mM probenecid, pH 7.4), 50 μl diluted solution per well). Plates are covered with aluminum foil and incubated at 37° C. for 1-2 hours in an environment containing 5% CO2. After the incubation, the dye is emptied from the plates, and the cells are washed once with KRH buffer, and resuspended in KRH buffer.
# To measure the ability of a test compound to agonize or antagonize a calcium mobilization response in cells expressing capsaicin receptors to capsaicin or other vanilloid agonist, the EC50 of the agonist capsaicin is first determined. An additional 20 μl of KRH buffer and 1 μl DMSO is added to each well of cells, prepared as described above. 100 μl capsaicin in KRH buffer is automatically transferred by the FLIPR instrument to each well. Capsaicin-induced calcium mobilization is monitored using either FLUOROSKAN ASCENT (Labsystems; Franklin, Mass.) or FLIPR (fluorometric imaging plate reader system; Molecular Devices, Sunnyvale, Calif.) instruments. Data obtained between 30 and 60 seconds after agonist application are used to generate an 8-point concentration response curve, with final capsaicin concentrations of 1 nM to 3 μM. KALEIDAGRAPH software (Synergy Software, Reading, Pa.) is used to fit the data to the equation: y=a*(1/(1+(b/x)^c)) to determine the 50% excitatory concentration (EC50) for the response. In this equation, y is the maximum fluorescence signal, x is the concentration of the agonist or antagonist (in this case, capsaicin), a is the Emax, b corresponds to the EC50 value and c is the Hill coefficient. Determination of Agonist Activity
# Test compounds are dissolved in DMSO, diluted in 20 μl KRH buffer so that the final concentration of test compounds in the assay well is between 1 μM and 5 μM, and added to cells prepared as described above. The 96 well plates containing prepared cells and test compounds are incubated in the dark, at room temperature for 0.5 to 6 hours. It is important that the incubation not continue beyond 6 hours. Just prior to determining the fluorescence response, 100 μl capsaicin in KRH buffer at twice the EC50 concentration determined as described above is automatically added by the FLIPR instrument to each well of the 96 well plate for a final sample volume of 200 μl and a final capsaicin concentration equal to the EC50. The final concentration of test compounds in the assay wells is between 1 μM and 5 μM. […] The concentration of antagonist required to provide a 50% decrease, relative to the response observed in the presence of capsaicin and without antagonist, is the IC50 for the antagonist, and is preferably below 1 micromolar, 100 nanomolar, 10 nanomolar or 1 nanomolar.
# T1 sequence (Q8NER1 whole entry): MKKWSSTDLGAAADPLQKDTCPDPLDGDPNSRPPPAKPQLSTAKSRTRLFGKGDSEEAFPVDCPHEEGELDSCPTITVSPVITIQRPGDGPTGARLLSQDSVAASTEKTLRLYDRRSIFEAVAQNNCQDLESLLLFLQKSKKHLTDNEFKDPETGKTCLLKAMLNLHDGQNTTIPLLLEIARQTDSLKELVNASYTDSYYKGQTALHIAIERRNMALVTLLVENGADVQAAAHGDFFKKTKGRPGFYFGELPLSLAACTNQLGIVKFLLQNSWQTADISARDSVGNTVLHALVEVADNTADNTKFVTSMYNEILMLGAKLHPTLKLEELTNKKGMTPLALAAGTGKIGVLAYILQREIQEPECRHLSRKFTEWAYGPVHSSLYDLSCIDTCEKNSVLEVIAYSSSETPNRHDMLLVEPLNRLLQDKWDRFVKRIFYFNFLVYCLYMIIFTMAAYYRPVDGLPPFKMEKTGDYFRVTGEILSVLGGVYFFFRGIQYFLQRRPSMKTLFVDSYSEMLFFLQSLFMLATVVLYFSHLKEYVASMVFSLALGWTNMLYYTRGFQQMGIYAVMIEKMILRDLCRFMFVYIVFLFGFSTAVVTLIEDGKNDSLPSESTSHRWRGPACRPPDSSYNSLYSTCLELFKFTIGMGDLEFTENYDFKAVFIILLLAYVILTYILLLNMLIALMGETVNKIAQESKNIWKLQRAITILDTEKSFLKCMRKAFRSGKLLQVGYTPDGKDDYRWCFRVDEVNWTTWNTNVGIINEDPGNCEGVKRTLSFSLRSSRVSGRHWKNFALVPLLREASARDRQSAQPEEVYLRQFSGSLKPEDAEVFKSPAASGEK
row,IC50 [nM],SMILES
1,≤ 100,"Cn1cnc2c(=O)n(-c3ccc(Cl)cc3)c(Oc3c(F)cc(F)cc3F)nc21 [Compound 8, 1-(4-chlorophenyl)-9-methyl-2-(2,4,6-trifluorophenoxy)-1,9-dihydro-6H-purin-6-one]"
2,≤ 100,"CCn1cnc2c(=O)n(-c3ccc(F)cc3)c(Oc3c(F)cc(F)cc3F)nc21 [Compound 9, 9-ethyl-1-(4-fluorophenyl)-2-(2,4,6-trifluorophenoxy)-1,9-dihydro-6H-purin-6-one]"
3,≤ 100,"Cn1cnc2c(=O)n(-c3ccc(Cl)cc3)c(Oc3ccc(F)c(F)c3F)nc21 [Compound 10, 1-(4-chlorophenyl)-9-methyl-2-(2,3,4-trifluorophenoxy)-1,9-dihydro-6H-purin-6-one]"
4,≤ 100,"CCn1cnc2c(=O)n(-c3ccc(F)cc3)c(Oc3ccc(F)c(F)c3F)nc21 [Compound 11, 9-ethyl-1-(4-fluorophenyl)-2-(2,3,4-trifluorophenoxy)-1,9-dihydro-6H-purin-6-one]"
5,≤ 100,"Cn1cnc2c(=O)n(-c3ccc(F)cc3)c(Oc3c(F)cc(F)cc3F)nc21 [Compound 12, 1-(4-fluorophenyl)-9-methyl-2-(2,4,6-trifluorophenoxy)-1,9-dihydro-6H-purin-6-one]"
6,≤ 100,"Cn1cnc2c(=O)n(-c3ccc(F)cc3)c(Oc3cc(F)cc(F)c3F)nc21 [Compound 20, 1-(4-fluorophenyl)-9-methyl-2-(2,3,5-trifluorophenoxy)-1,9-dihydro-6H-purin-6-one]"
7,≤ 100,"Cn1cnc2c(=O)n(-c3ccc(Cl)cc3)c(Oc3cccc(F)c3F)nc21 [Compound 21, 1-(4-chlorophenyl)-2-(2,3-difluorophenoxy)-9-methyl-1,9-dihydro-6H-purin-6-one]"
8,≤ 100,"Cn1cnc2c(=O)n(-c3ccc(F)cc3)c(Oc3ccc(F)cc3Cl)nc21 [Compound 22, 2-(2-chloro-4-fluorophenoxy)-1-(4-fluorophenyl)-9-methyl-1,9-dihydro-6H-purin-6-one]"
9,≤ 100,"Cn1cnc2c(=O)n(-c3ccc(Cl)cc3)c(Oc3ccc(F)cc3Cl)nc21 [Compound 23, 2-(2-chloro-4-fluorophenoxy)-1-(4-chlorophenyl)-9-methyl-1,9-dihydro-6H-purin-6-one]"
10,≤ 100,"Cn1cnc2c(=O)n(-c3ccc(F)cc3)c(Oc3c(F)ccc(F)c3F)nc21 [Compound 24, 1-(4-fluorophenyl)-9-methyl-2-(2,3,6-trifluorophenoxy)-1,9-dihydro-6H-purin-6-one]"
11,≤ 100,"Cn1cnc2c(=O)n(-c3ccc(Cl)cc3)c(Oc3c(F)ccc(F)c3F)nc21 [Compound 25, 1-(4-chlorophenyl)-9-methyl-2-(2,3,6-trifluorophenoxy)-1,9-dihydro-6H-purin-6-one]"
12,≤ 100,"CCn1cnc2c(=O)n(-c3ccc(F)cc3)c(Oc3cc(F)cc(F)c3F)nc21 [Compound 26, 9-ethyl-1-(4-fluorophenyl)-2-(2,3,5-trifluorophenoxy)-1,9-dihydro-6H-purin-6-one]"
13,≤ 100,"Cn1cnc2c(=O)n(-c3ccc(Cl)cc3)c(Oc3cc(F)cc(F)c3F)nc21 [Compound 27, 1-(4-chlorophenyl)-9-methyl-2-(2,3,5-trifluorophenoxy)-1,9-dihydro-6H-purin-6-one]"

# Same assay, conditions: cells expressing human capsaicin receptor, capsaicin-induced fluorescence response; read-out: IC50 determined as described in Example 6
row,IC50 [nM],SMILES
1,≤ 100,"Cn1cnc2c(=O)n(-c3ccc(Br)cc3)c(Oc3ccc(F)c(F)c3F)nc21 [Compound 1, 1-(4-Bromophenyl)-9-methyl-2-(2,3,4-trifluorophenoxy)-1,9-dihydro-6H-purin-6-one]"
2,≤ 100,"Cn1cnc2c(=O)n(-c3ccc(Cl)nc3)c(Oc3cc(F)c(F)c(F)c3)nc21 [Compound 6, 1-(6-Chloropyridin-3-yl)-9-methyl-2-(3,4,5-trifluorophenoxy)-1H-purin-6(9H)-one]"
3,≤ 100,"Cn1cnc2c(=O)n(-c3ccc(C#N)nc3)c(Oc3cc(F)c(F)c(F)c3)nc21 [Compound 7, 5-(9-Methyl-6-oxo-2-(3,4,5-trifluorophenoxy)-6H-purin-1(9H)-yl)picolinonitrile]"
